Measured values: patent publication US11090305B2, “Methods and compositions to reduce oxidative stress” (University of Massachusetts, priority 2009, dated 2021)

Experiments:
HSCs = test: Competitive HSC transplantation, bone marrow repopulation; format: in vivo, mouse; details: for outcome of competitive transplant with CD45.2 WT HSCs: WT donor mice treated 2 weeks before harvest
Description: HSC were purified from freshly harvested bone marrow mononuclear cells as c-Kit^+Sca-1^+CD90.1^lowLin^− by FACS sorting. Recipient mice were C57BL/6 (WT) on standard chow. Recipients underwent lethal irradiation (1100 Rads delivered in 2 doses 3 hr apart). Immediately after the 2nd irradiation, recipients were anesthetized (2% isoflurane) and 10^6 HSC/0.1 ml sterile PBS were transplanted via retro-orbital injection. Mice were followed for 12 weeks before study or administration of AOM.
The functional consequence of this loss of quiescence by competitive transplantation was investigated next, insofar as the presence of quiescent HSC are critical for successful bone marrow reconstitution. HSCs from CD45.2 ApoE^−/− or HCD mice were mixed 1:1 with CD45.1 WT HSCs and then transplanted into lethally irradiated CD45.1 WT recipients.
Activation of p38 MAPK reduces HSC quiescence in Atm^−/− mice. To evaluate this phenomena in hypercholesterolemic mice, ApoE^−/− and WT mice were treated with the selective p38 MAPK inhibitor SB203580 or the MEK 1 inhibitor PD98059 for 2 weeks prior to harvest of HSCs for transplant. CD45.2 ApoE^−/− or WT HSCs with mixed 1:1 with CD45.1 WT HSCs and transplanted into lethally irradiated CD45.1 recipient mice.

Notch1 = Notch1 expression in HSCs and lymphoid progenitors (Example 5); format: in vivo, mouse
Description: Cells were stained with monoclonal antibodies conjugated to various fluoroprobes. These antibodies included: Notch1, cKit (2B8), Sca-1 (E13-161.7), CD4 (L3T4), CD8 (53-6.72), CD90.1, CD25, CD44, TCRβ, NK1.1, γδTCR, CD45.1, CD45.2. The lineage cocktail consisted of CD4, CD8, B220 (RA3-6B2), TER-119, Mac-1 (MI/70), and Gr-1 (RB6-8C5). All antibodies were purchased from BD Bioscience (San Diego, Calif.). FACS analysis was carried out on a FACS Diva.
The Notch family is an evolutionarily conserved system of receptors and ligands that play a fundamental role in regulating cell-fate decision in many types of stem and progenitor cells, including HSCs. Notch1 plays a critical role in lymphocyte differentiation, wherein expression of Notch1 favors T cell differentiation. To clarify the effects of hypercholesterolemia on the expression Notch family, the expression of Notch family was screened in HSCs isolated from WT and ApoE^−/− mice. The percentage of HSCs expressing of Notch1 was higher in hypercholesterolemic than WT mice, whereas no differences in Notch2, Notch4, or Delta-like-1 were noted among groups (FIG. 47A). FIGS. 47A-47D show notch 1 expression is greater in HSCs from hypercholesterolemic mice. […] (B) Within the HSC population, a higher percentage of long term-HSCs expressed Notch1 than did short term-HSCs. This difference was evident in both WT and ApoE^−/− mice, although the percentage of short term-HSCs expressing Notch1 was twofold higher in ApoE^−/− than WT mice. […] (D) Treatment of ApoE^−/−, but not WT mice with SB203580 reduced the percentage of HSCs expressing Notch1. m±sd, n=5, *p<0.05 vs. WT, †p<0.05 vs. ApoE or HCD, p<0.05 vs. long-term HSCs.

[1] = system: p19^Arf, p21^Waf1, and p27^Kip1; test: RT-PCR expression of p19^Arf, p21^Waf1, p27^Kip1 in HSCs; format: in vivo, mouse
Description: The expression of p15^Ink4b, p16^Ink4a, p18^Ink4c, p19^ARF, P21^Waf1, and p27^Kip1 was determined using RT-PCR, a more sensitive and quantitative assay, in ApoE^−/− and WT HSCs.

[2] = system: ischemic hindlimb of rats; test: Evaluation of muscle necrosis (NBT staining, H&E, muscle weights) (Example 1); format: in vivo, rat; details: 7 days after AdeNOS or PBS (17 days after induction of ischemia)
Description: Muscle necrosis was determined using cut sections of tibialis anterior and gastrocnemius muscle. Muscle samples were cut transversely into 3 pieces (cuts made in 2 mm increment); two sections were stained with nitroblue tetrazolium (NBT). These sections were incubated in phosphate buffered saline (pH 7.4) containing 0.033% NBT (Fischer Biotech, Austin, Tex.) and 0.133% NADH (Roche Diagnostics, Indianapolis, Ind.) for 10 min, and then fixed in 4% paraformaldehyde for 24 hours. The areas of viable (stained) and non-viable (unstained) tissue were quantified using Image Pro software (Media Cybernetics, Bethesda, Md.) and the average taken for each rat. The third cut muscle section was used for H&E staining.

[3] = system: ischemic hindlimb of rats; test: Laser Doppler perfusion imaging of hindlimb blood flow (Example 1); format: in vivo, rat; details: days after AdeNOS or PBS administration
Description: Hindlimb blood flow was determined by means of laser Doppler imaging (Moor Instruments, Ltd., Devon, United Kingdom). Flow was measured preoperatively, immediately after arterial excision, immediately before AdeNOS or saline administration, and on days 4, 7, 21, and 30 thereafter. Scans were obtained during inhalation of 1% isoflurane while core body temperature was maintained between 36.8-37.2° C. by means of a heating element driven by a rectal temperature probe. Scans were repeated three times and the average for each rat determined. Data were expressed as the ratio of ischemic:non-ischemic hindlimb.

Ca^2+-dependent NOS [4] = test: Ca^2+-dependent NOS activity in gastrocnemius muscle, hindlimb ischemia (Example 1); format: in vivo, rat; details: 4 days after AdeNOS or PBS (14 days after induction of ischemia)
Description: A portion of the gastrocnemius muscle harvested on day 4 after AdeNOS or saline administration (14 days after induction of ischemia) was snap frozen in liquid N2 for subsequent analysis of Ca^2+-dependent NOS activity (EMD Chemicals, Gibbstown, N.J.). 50 μg of muscle protein homogenate was incubated in 10 mM NADPH, 1 μCi/μl ^14C-arginine, 6 mM CaCl2, 50 mM Tris.HCl (pH 7.4), 6 μM BH4, 2 μM FAD, and 2 μM FMN for 30 minutes at 37° C. The reaction was stopped with 400 μl of 50 mM Hepes (pH 5.5) and 5 mM EDTA. Identical samples were prepared without CaCl2 and all reactions were performed in duplicate. The radioactivity of the sample eluate was measured in a liquid scintillation counter. Enzyme activity was expressed as […] per minute per microgram protein (CPM/min/ug). The Ca^2+-NOS activity was calculated by subtracting the NOS activity measured without calcium from the total activity measured in the presence of calcium.

wt MSC [5] = test: Response of wt MSC to endogenic medium (CD31 staining); format: cell-based, mouse; details: WT MSCs, increased concentrations
Description: (§1) Adipocytes were identified by Oil Red O staining. m±sd, n=4, *p<0.05 vs control. […] Endothelial cells were identified by CD31 staining. m±sd, n=4, *p<0.05 vs control, #p<0.05 vs 5 nM.

wt MSC [6] = test: Nox 4 expression and DCF staining in wt MSC after insulin treatment; format: cell-based, mouse; details: WT MSCs, increased concentrations
Description: as §1

wt MSC [7] = test: Basal PPARγ, adiponectin, eNOS and p-eNOS expression in wt MSC; format: cell-based, mouse; details: WT MSCs, increased concentrations
Description: as §1

wt MSC [8] = test: Response of wt MSC to adipogenic medium (Oil Red O staining); format: cell-based, mouse; details: WT MSCs, increased concentrations
Description: as §1

PAD patients = details: acute or short term supplementation, literature; cited from earlier work
nitrotyrosine = test: Nitrotyrosine accumulation in gastrocnemius muscle by western blotting (Example 2); format: in vivo, rat; details: 14 days after induction of ischemia
Description: (§2) Rats were sacrificed 14 days after induction of ischemia for measurement of gastrocnemius muscle eNOS and nitrotyrosine expression. […] Samples were homogenized in liquid nitrogen and transferred to NP-40 lysis buffer, comprised of 50 mM HEPES (pH 7.5), 150 mM NaCl, 10% glycerol, 1.5 mM MgCl2, 1 mM EDTA, 100 mM NaF, 1% NP 40, 1 mM PMSF, and […] aprotinin. The lysates were centrifuged, the supernatant recovered, and the protein concentration determined (Pierce Biotechnology, Rockford, Ill.). […] Membranes were incubated overnight at 4° C. with mouse monoclonal anti-nitrotyrosine (Cayman Chemical Co., Ann Arbor, Mich., 1:1000) or mouse monoclonal anti-eNOS (BD Transduction Laboratories, San Diego, Calif., 1:1000) and then incubated for 2 h with horseradish peroxidase-conjugated anti-mouse IgG antibody (Pierce Biotechnology, 1:5000). Immunoreactive bands were visualized using the enhanced chemiluminescence system (Amersham, Arlington Heights, Ill.). Band density was quantitated by standard densitometry and the intensity of the band of interest expressed as a function of the α-tubulin band.

eNOS = eNOS expression in gastrocnemius muscle by western blotting (Example 2); format: in vivo, rat; details: dietary supplements from 7 days before ischemia; 14 days after induction of ischemia
Description: as §2

[9] = system: Ca^2+-independent NOS (iNOS); test: Ca^2+-independent NOS activity in gastrocnemius muscle (Example 2); format: in vivo, rat; details: 14 days after induction of ischemia
Description: (§3) Rats were sacrificed 14 days after induction of ischemia for determination of gastrocnemius muscle NOS activity. […] Muscles were homogenized in ice-cold buffer (250 mM Tris-HCl, pH 7.4, 10 mM EDTA, 10 mM EGTA), centrifuged, and the protein in the supernatant adjusted to 5 μg/ml. Samples were incubated in 10 mM NADPH, 1 μCi/μl ^14C-Arg, 6 mM CaCl2, 50 mM Tris.HCl (pH 7.4), 6 μM BH4, 2 uM FAD, and 2 μM FMN for 30 minutes at 37° C. The reaction was stopped with 400 μl of 50 mM Hepes, pH 5.5, 5 mM EDTA. Identical samples were prepared without CaCl2 and all reactions were performed in duplicate. The radioactivity of the sample eluate was measured and expressed as CPM/μg protein. The Ca^2+-dependent NOS activity, which corresponds to the sum of the endothelial and neural NOS isoforms, was calculated by subtracting the NOS activity measured in the absence of CaCl2) from the NOS activity measured in the presence of CaCl2). The Ca^2+-independent NOS activity corresponds to inflammatory isoform of NOS, or iNOS.

Ca^2+-dependent NOS [10] = test: Ca^2+-dependent NOS activity in gastrocnemius muscle (Example 2); format: in vivo, rat; details: 14 days after induction of ischemia
Description: as §3

[11] = ApoE^−/− mice, in vivo treatment

With `C[S+]([O-])c1ccc(-c2nc(-c3ccncc3)c(-c3ccc(F)cc3)[nH]2)cc1` (stereo not shown) [SB203580] the “percentage of CD45.2^+ bone marrow mononuclear cells 12 weeks after competitive transplantation” value (HSCs; ApoE^−/− donor mice treated before HSC harvest (NAC 4 weeks; SB203580, PD98059 2 weeks)) was “significantly improved the efficacy of ApoE^−/− HSCs in the competitive transplant paradigm”, the “outcome of competitive transplant with CD45.2 WT HSCs” value (HSCs) was “Neither drug affected the outcome” and the “percentage of HSCs expressing Notch1” value (Notch1; WT mice) was “did not affect the WT group”. The “percentage of HSCs expressing Notch1” value (Notch1; hypercholesterolemic mice (ApoE^−/−, HCD), in vivo treatment) was “significantly reduced the percentage of ApoE^−/− HSCs expressing Notch1”, the “HSC expression of p19^Arf, p21^Waf1, and p27^Kip1” value (“HSC expression of p19^Arf” below) [1, 11] was “significantly reduced HSC expression of p19^Arf, p21^Waf1, and p27^Kip1” and the “HSC expression of p19^Arf” value ([1]; WT HSCs) was “neither drug affected expression of these proteins in WT HSCs”.
With `C[C@H](O)[C@H](O)[C@H]1CNc2nc(N)[nH]c(=O)c2N1` [BH4, tetrahydrobiopterin] the “extent of muscle necrosis (NBT staining)” value [2] was “no effect”, the “hindlimb blood flow recovery” value [3] was “no effect” and the “Ca^2+-dependent NOS activity in gastrocnemius muscle” value (Ca^2+-dependent NOS [4]) was “no effect”.
For insulin: insulin treatment of wt MSC, the “differentiation towards endothelial cells” value (wt MSC [5]) was “decreased differentiation towards endothelial cells”, the “Nox 4 expression and oxidative stress” value (wt MSC [6]) was “increased Nox 4 expression and oxidative stress” and the PPARgamma expression (wt MSC [7]) was “increased PPARgamma”. The p-eNOS expression (wt MSC [7]) was “decreased p-eNOS expression” and the differentiation towards adipocytes (wt MSC [8]) was “increased differentiation towards adipocytes”.
For `O=C1O[C@H]([C@@H](O)CO)C(O)=C1O` [vitamin C, L-ascorbic acid], the PAD symptoms (PAD patients) is given as “reduce PAD symptoms”.
With `COc1cccc(-c2cc(=O)c3ccccc3o2)c1N` [PD98059] the “outcome of competitive transplant with CD45.2 WT HSCs” value (HSCs) was “Neither drug affected the outcome”, the “HSC expression of p19^Arf” value [1, 11] was “had no effect” and the “HSC expression of p19^Arf” value ([1]; WT HSCs) was “neither drug affected expression of these proteins in WT HSCs”.
With L-arginine α-ketoglutarate the “nitrotyrosine level in the ischemic gastrocnemius muscle” value (nitrotyrosine) was “significantly less than the level noted in rats fed normal chow”, the “eNOS expression in the ischemic gastrocnemius muscle” value (eNOS) was “significantly greater than that of rats fed normal chow” and the “Ca^2+-independent NOS activity in the ischemic gastrocnemius muscle” value [9] was “statistically similar to the normal chow group”. The “Ca^2+-dependent NOS activity in the ischemic gastrocnemius muscle” value (Ca^2+-dependent NOS [10]) was “greater than that of rats fed normal chow”.
